In patent US11390606B2, “Pyridazinone compounds and uses thereof” (Edgewise Therapeutics, Inc., priority 2018, dated 2022) one finds IC50 data, which are given here for 30 compounds.

The test has as its target T1, skeletal myofibrils (Rabbit Psoas), myosin ATPase activity.
T1 construct: Rabbit Psoas Prep 11 (0.25 mg/mL)
Nature of the test: Skeletal Myofibril ATPase Assay. Format: biochemical. The following applies: skeletal myofibrils (Rabbit Psoas 0.25 mg/mL), PK/LDH-coupled NADH absorbance at 340 nm. How it is done: Overview: Myosin ATPase activity is assessed by using a coupled reaction system, in which ADP generated by the myosin ATPase function is coupled to the disappearance of NADH through the pyruvate kinase/lactate dehydrogenase (PK-LDH) system. Myosin ATPase activity produces ADP, which is used as a substrate for PK to produce pyruvate and regenerate ATP. The pyruvate is then used as a substrate by LDH to oxidize NADH to NAD+. The rate of the reaction is monitored through the time-dependent disappearance of NADH using absorbance at 340 nm. Inhibition of ATPase activity by the assayed compounds is indicated by a reduced rate of NADH loss, relative to vehicle-treated controls, over the experimental time window. To assess the selectivity of the assayed compounds for skeletal myofibrils, the compounds are counter-screened in cardiac myofibrils.
Materials: The following stock solutions and reagents were used in the Skeletal Myofibril ATPase Assay:
Stock Solutions of pCa buffer. Combine PIPES, CaCl2, and EGTA solutions with 70 mL of water. Adjust pH to 7.0 and bring final volume to 100 mL.
Buffer A & Buffer B. Buffers were stored on ice until use.
Skeletal Myofibril ATPase Assay Procedure: BSA, ATP, NADH, PEP, and DTT solutions were thawed at room temperature, then transferred to ice. Pellet-frozen myofibrils were transferred with approximately twice the required volume into a sufficiently large tube and capped. Myofibrils were thawed by rolling in a water bath for approximately 15 min at room temperature and cooled on ice. Buffers A and B were prepared by adjusting volumes as necessary for required number of wells and stored on ice. 0.5 μL of the compounds to be assayed were added into wells. 25 μL of Buffer A was dispensed into the wells, followed by 25 μL of Buffer B. The wells were measured for absorbance at 340 nm, using a kinetic protocol in which the wells are read every 1.5-2 min for 45 min. The slope of the data was approximated by subtracting the minimum absorbance value from the maximum value for each well. This was accomplished either in the SoftMax Pro software or in a spreadsheet program such as Excel. Using GraphPad Prism 8.0, the data was normalized by assigning a value of 100% to the 1% DMSO vehicle wells. Typically, a normalized 0% value was simply assigned to a (Max−Min) value of 0. The normalized data was fit to a Four Parameter Logistic sigmoidal equation, constraining the bottom to be 0 or greater. Compounds of Table 1 to 4 were tested and results of the assay appear in Table 5 herein. A=IC50 is less than or equal to 10 μM; B=IC50 is greater than 10 μM and less than 100 μM; C=IC50 is greater than 100 μM.

As usually defined, the IC50 is the midpoint of a concentration-inhibition curve. `O=c1ccc(-c2cnc(NCCOC(F)F)nc2)nn1Cc1ccc(Cl)cc1` [Compound 46, 2-(4-chlorobenzyl)-6-(2-((2-(difluoromethoxy)ethyl)amino)pyrimidin-5-yl)pyridazin-3(2H)-one] yielded an IC50 of less than 10 µM.

Take `CC1CCC(=O)N1c1ncc(-c2ccc(=O)n(Cc3ccc(Cl)cc3)n2)cn1` (stereo not drawn) [Compound 47, 2-(4-chlorobenzyl)-6-(2-(2-methyl-5-oxopyrrolidin-1-yl)pyrimidin-5-yl)pyridazin-3(2H)-one]: the IC50 is less than 10 µM.

The compound `O=c1ccc(-c2cnc(OCC(F)(F)F)nc2)nn1Cc1ccc(CO)cc1` [Compound 48, 2-(4-(hydroxymethyl)benzyl)-6-(2-(2,2,2-trifluoroethoxy)pyrimidin-5-yl)pyridazin-3(2H)-one] yielded an IC50 of less than 10 µM.

In turn, `O=c1ccc(-c2cnc(OCC(F)(F)F)nc2)nn1Cc1ccccc1O` [Compound 49, 2-(2-hydroxybenzyl)-6-(2-(2,2,2-trifluoroethoxy)pyrimidin-5-yl)pyridazin-3(2H)-one] displayed an IC50 of less than 10 µM.

For the compound `O=c1ccc(-c2cnc(OCC(F)(F)F)nc2)nn1Cc1cc(Cl)ccc1O` [Compound 50, 2-(5-chloro-2-hydroxybenzyl)-6-(2-(2,2,2-trifluoroethoxy)pyrimidin-5-yl)pyridazin-3(2H)-one], the IC50 was less than 10 µM.

`[2H]C([2H])(c1ccccc1)n1nc(-c2cnc(OCC(F)(F)F)nc2)ccc1=O` [Compound 52, 2-(phenylmethyl-d2)-6-(2-(2,2,2-trifluoroethoxy)pyrimidin-5-yl)pyridazin-3(2H)-one] had an IC50 of less than 10 µM.

In turn, `O=c1ccc(-c2ccc(OC(F)F)nc2)nn1[C@@H](CO)c1ccc(Cl)cc1` [Compound 53, (R)-2-(1-(4-chlorophenyl)-2-hydroxyethyl)-6-(6-(difluoromethoxy)pyridin-3-yl)pyridazin-3(2H)-one] came in with an IC50 greater than 100 µM.

The compound `O=c1ccc(-c2cnc(OCC(F)(F)F)nc2)nn1C1(c2ccccc2)CC1` [Compound 54, 2-(1-phenylcyclopropyl)-6-(2-(2,2,2-trifluoroethoxy)pyrimidin-5-yl)pyridazin-3(2H)-one] returned an IC50 of less than 10 µM.

Regarding `O=c1ccc(-c2ccc(OCC(F)(F)F)cc2)nn1Cc1ccc(Cl)cc1` [Compound 101, 2-(4-chlorobenzyl)-6-(4-(2,2,2-trifluoroethoxy)phenyl)pyridazin-3(2H)-one], the IC50 is less than 10 µM.

On to `O=c1ccc(-c2ccc(OCC(F)F)cc2)nn1Cc1ccc(Cl)cc1` [Compound 102, 2-(4-chlorobenzyl)-6-(4-(2,2-difluoroethoxy)phenyl)pyridazin-3(2H)-one], for which the IC50 was less than 10 µM.

As to `O=c1ccc(-c2ccc(OC(F)F)cc2)nn1Cc1ccc(Cl)cc1` [Compound 103, 2-(4-chlorobenzyl)-6-(4-(difluoromethoxy)phenyl)pyridazin-3(2H)-one], the IC50 is less than 10 µM.

With `O=c1ccc(-c2ccc(C3CC3)cc2)nn1Cc1ccc(Cl)cc1` [Compound 104, 2-(4-chlorobenzyl)-6-(4-cyclopropylphenyl)pyridazin-3(2H)-one], the IC50 is less than 10 µM.

In the case of `O=c1ccc(-c2ccc(OC(F)(F)F)cc2)nn1Cc1ccc(Cl)cc1` [Compound 105, 2-(4-chlorobenzyl)-6-(4-(trifluoromethoxy)phenyl)pyridazin-3(2H)-one], the IC50 is less than 10 µM.

The compound `COCCOc1ccc(-c2ccc(=O)n(Cc3ccc(Cl)cc3)n2)cc1` [Compound 106, 2-(4-chlorobenzyl)-6-(4-(2-methoxyethoxy)phenyl)pyridazin-3(2H)-one] registered an IC50 of less than 10 µM.

Regarding `CC(=O)Nc1ccc(-c2ccc(=O)n(Cc3ccc(Cl)cc3)n2)cc1` [Compound 107, N-(4-(1-(4-chlorobenzyl)-6-oxo-1,6-dihydropyridazin-3-yl)phenyl)acetamide], the IC50 is less than 10 µM.

On to `N#CCOc1ccc(-c2ccc(=O)n(Cc3ccc(Cl)cc3)n2)cc1` [Compound 108, 2-(4-(1-(4-chlorobenzyl)-6-oxo-1,6-dihydropyridazin-3-yl)phenoxy)acetonitrile], for which the IC50 is less than 10 µM.

In the case of `CC1Cc2cc(-c3ccc(=O)n(Cc4ccc(Cl)cc4)n3)ccc2O1` (stereo not drawn) [Compound 109, 2-(4-chlorobenzyl)-6-(2-methyl-2,3-dihydrobenzofuran-5-yl)pyridazin-3(2H)-one], the IC50 was less than 10 µM.

`C[C@H]1Cc2cc(-c3ccc(=O)n(Cc4ccc(Cl)cc4)n3)ccc2O1` [Compound 110, (S)-2-(4-chlorobenzyl)-6-(2-methyl-2,3-dihydrobenzofuran-5-yl)pyridazin-3(2H)-one] showed an IC50 of less than 10 µM.

The compound `C[C@@H]1Cc2cc(-c3ccc(=O)n(Cc4ccc(Cl)cc4)n3)ccc2O1` [Compound 111, (R)-2-(4-chlorobenzyl)-6-(2-methyl-2,3-dihydrobenzofuran-5-yl)pyridazin-3(2H)-one] had an IC50 of less than 10 µM.

In turn, `O=c1ccc(-c2ccc3c(c2)CCO3)nn1Cc1ccc(Cl)cc1` [Compound 112, 2-(4-chlorobenzyl)-6-(2,3-dihydrobenzofuran-5-yl)pyridazin-3(2H)-one] registered an IC50 of less than 10 µM.

Compound `CNC(=O)c1ccc(-c2ccc(=O)n(Cc3ccc(Cl)cc3)n2)cc1` [Compound 113] showed an IC50 of 10 to 100 µM.

In turn, `NC(=O)c1ccc(-c2ccc(=O)n(Cc3ccc(Cl)cc3)n2)cc1` [Compound 114, 4-(1-(4-chlorobenzyl)-6-oxo-1,6-dihydropyridazin-3-yl)benzamide] came in with an IC50 of 10 to 100 µM.

For `CC1(C)Cc2cc(-c3ccc(=O)n(Cc4ccc(Cl)cc4)n3)ccc2O1` [Compound 115, 2-(4-chlorobenzyl)-6-(2,2-dimethyl-2,3-dihydrobenzofuran-5-yl)pyridazin-3(2H)-one], the IC50 was greater than 100 µM.

In the case of `NC(=O)c1ccc(Cn2nc(-c3ccc(OC(F)F)cc3)ccc2=O)cc1` [Compound 116, 4-((3-(4-(difluoromethoxy)phenyl)-6-oxopyridazin-1(6H)-yl)methyl)benzamide], the IC50 is greater than 100 µM.

Take `O=c1ccc(-c2ccc3scnc3c2)nn1Cc1ccc(Cl)cc1` [Compound 117, 6-(benzo[d]thiazol-5-yl)-2-(4-chlorobenzyl)pyridazin-3(2H)-one]: the IC50 is greater than 100 µM.

For the compound `CN(C)S(=O)(=O)c1ccc(Cn2nc(-c3ccc(OC(F)F)cc3)ccc2=O)cc1` [Compound 118, 4-((3-(4-(difluoromethoxy)phenyl)-6-oxopyridazin-1(6H)-yl)methyl)-N,N-dimethyl-benzenesulfonamide], the IC50 is greater than 100 µM.

`Cn1ncc2cc(-c3ccc(=O)n(Cc4ccc(Cl)cc4)n3)ccc21` [Compound 119, 2-(4-chlorobenzyl)-6-(1-methyl-1H-indazol-5-yl)pyridazin-3(2H)-one] returned an IC50 greater than 100 µM.

The compound `CN(C)S(=O)(=O)c1ccc(-c2ccc(=O)n(Cc3ccc(Cl)cc3)n2)cc1` [Compound 120, 4-(1-(4-chlorobenzyl)-6-oxo-1,6-dihydropyridazin-3-yl)-N,N-dimethyl-benzenesulfonamide] had an IC50 greater than 100 µM.

Regarding `CC1(C)C(=O)Nc2ccc(-c3ccc(=O)n(Cc4ccc(Cl)cc4)n3)cc21` [Compound 121, 5-(1-(4-chlorobenzyl)-6-oxo-1,6-dihydropyridazin-3-yl)-3,3-dimethylindolin-2-one], the IC50 is greater than 100 µM.

Consider `O=C1Cc2cc(-c3ccc(=O)n(Cc4ccc(Cl)cc4)n3)ccc2N1` [Compound 122, 5-(1-(4-chlorobenzyl)-6-oxo-1,6-dihydropyridazin-3-yl)indolin-2-one], for which the IC50 is greater than 100 µM.
